Where two headings read alike, the source gives them in different places.
Assays:
Assay type in all cases: cell-based
NR2F6 = molecular target: T1, NR2F6 (Homo sapiens, UniProt P10588); experiment: NR2F6 agonist screening, Firefly signal cmpd/DMSO
T1 construct: expressed in transfected cells; also transient transfection
T1 sequence (P10588 1-404): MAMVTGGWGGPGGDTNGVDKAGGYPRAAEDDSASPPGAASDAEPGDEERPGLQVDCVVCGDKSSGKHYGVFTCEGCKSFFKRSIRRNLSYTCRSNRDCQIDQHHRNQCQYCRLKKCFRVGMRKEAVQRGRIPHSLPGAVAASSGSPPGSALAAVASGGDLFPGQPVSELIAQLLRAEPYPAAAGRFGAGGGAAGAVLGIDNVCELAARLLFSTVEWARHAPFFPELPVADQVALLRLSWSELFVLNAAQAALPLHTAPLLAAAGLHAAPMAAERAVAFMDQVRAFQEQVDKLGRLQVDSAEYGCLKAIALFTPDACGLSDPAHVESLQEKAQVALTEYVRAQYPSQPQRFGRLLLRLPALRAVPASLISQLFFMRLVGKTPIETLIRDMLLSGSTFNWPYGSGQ

Renilla [1] = experiment: Renilla signal in NR2F6 agonist screening, cmpd/DMSO; settings: Renilla
HEK293 pGL4 = experiment: Firefly_pGL signal, cmpd/DMSO (pGL4 control cells); settings: Homo sapiens
NR2F6 LBD = molecular target: T2, NR2F6 LBD (Homo sapiens, UniProt P10588); experiment: NR2F6 LBD transient transfection
T2 construct: expressed in transfected cells
T2 sequence (P10588 165-393 limits assumed): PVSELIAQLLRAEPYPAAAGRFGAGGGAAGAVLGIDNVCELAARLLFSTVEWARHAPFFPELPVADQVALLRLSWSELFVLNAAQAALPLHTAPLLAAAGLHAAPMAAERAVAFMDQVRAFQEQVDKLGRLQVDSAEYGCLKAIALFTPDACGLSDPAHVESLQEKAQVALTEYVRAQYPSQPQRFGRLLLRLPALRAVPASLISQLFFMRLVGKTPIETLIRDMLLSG
In short: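 LBD-transfected cells treated at 40, 10, 2 and 0.5 μM (4 replicates); cytotoxicity measured in parallel, normalized to DMSO (0%) and zero signal (100%). Higher concentrations excluded where signal loss reflected toxicity.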

Renilla [2] = experiment: Renilla signal, LBD, cmpd/DMSO (NR2F6 LBD transfected cells)
[3] = read-out: Renilla F4, cmpd/DMSO (mean)
[4] = F4, 1% FBS, read-out: Renilla, F4, 1% FBS, cmpd/DMSO (mean)
[5] = F4, 10% FBS, read-out: Renilla, F4, 10% FBS, cmpd/DMSO (mean)
[6] = HEK293, 0.5 uM, read-out: Firefly pGL4, cmpd/DMSO (mean)
[7] = HEK293, 2 uM, read-out: Firefly pGL4, cmpd/DMSO (mean)
[8] = HEK293, 10 uM, read-out: Firefly pGL4, cmpd/DMSO (mean)
[9] = HEK293, 40 uM, read-out: Firefly pGL4, cmpd/DMSO (mean)
[10] = HEK293, pGL4, 1% FBS, 0.5 uM, read-out: Firefly, pGL4, 1% FBS, cmpd/DMSO (mean)
[11] = HEK293, pGL4, 1% FBS, 2 uM, read-out: Firefly, pGL4, 1% FBS, cmpd/DMSO (mean)
[12] = HEK293, pGL4, 1% FBS, 10 uM, read-out: Firefly, pGL4, 1% FBS, cmpd/DMSO (mean)
[13] = HEK293, pGL4, 1% FBS, 40 uM, read-out: Firefly, pGL4, 1% FBS, cmpd/DMSO (mean)
[14] = HEK293, pGL4, 10% FBS, 0.5 uM, read-out: Firefly, pGL4, 10% FBS, cmpd/DMSO (mean)
[15] = HEK293, pGL4, 10% FBS, 2 uM, read-out: Firefly, pGL4, 10% FBS, cmpd/DMSO (mean)
[16] = HEK293, pGL4, 10% FBS, 10 uM, read-out: Firefly, pGL4, 10% FBS, cmpd/DMSO (mean)
[17] = HEK293, pGL4, 10% FBS, 40 uM, read-out: Firefly, pGL4, 10% FBS, cmpd/DMSO (mean)

`O=S1(=O)C[C@H](NCc2ccco2)[C@@H](S(=O)(=O)c2cccs2)C1` [Compound D135] was tested, and the “Firefly F4, cmpd/DMSO (mean)” value (NR2F6; 0.5 uM) was 1.7, the “Firefly F4, cmpd/DMSO (mean)” value (NR2F6; 2 uM) was 2.4 and the “Firefly F4, cmpd/DMSO (mean)” value (NR2F6; 10 uM) was 1.9. For the same molecule, the “Firefly F4, cmpd/DMSO (mean)” value (NR2F6; 40 uM) was 2.8, the “F4, Firefly/Renilla for S/B(F4) > 3” value (NR2F6; 1% FBS, 40 uM) was 1.9 and the “Firefly, F4/pGL4 for S/B(F4) > 3” value (NR2F6; 1% FBS, 40 uM) was 3.0. The “F4, Firefly/Renilla for S/B(F4) > 3” value (NR2F6; 10% FBS, 40 uM) was 1.9, the “Firefly, F4/pGL4 for S/B(F4) > 3” value (NR2F6; 10% FBS, 40 uM) was 2.3 and the “Firefly, F4, 1% FBS, cmpd/DMSO (mean)” value (NR2F6; 1% FBS, 0.5 uM) was 1.2. The “Firefly, F4, 1% FBS, cmpd/DMSO (mean)” value (NR2F6; 1% FBS, 2 uM) was 1.6, the “Firefly, F4, 1% FBS, cmpd/DMSO (mean)” value (NR2F6; 1% FBS, 10 uM) was 1.1 and the “Firefly, F4, 1% FBS, cmpd/DMSO (mean)” value (NR2F6; 1% FBS, 40 uM) was 3.3. For the same molecule, the “Firefly, F4, 10% FBS, cmpd/DMSO (mean)” value (NR2F6; 10% FBS, 0.5 uM) was 1.0, the “Firefly, F4, 10% FBS, cmpd/DMSO (mean)” value (NR2F6; 10% FBS, 2 uM) was 0.7 and the “Firefly, F4, 10% FBS, cmpd/DMSO (mean)” value (NR2F6; 10% FBS, 10 uM) was 1.8. For the same molecule, the “Firefly, F4, 10% FBS, cmpd/DMSO (mean)” value (NR2F6; 10% FBS, 40 uM) was 3.7, the fold induction at 0.5 µM (Renilla [1]; [3]) was 0.9 and the fold induction at 2 µM (Renilla [1]; [3]) was 1.2. The fold induction at 10 µM (Renilla [1]; [3]) was 1, the fold induction at 40 µM (Renilla [1]; [3]) was 1.3 and the fold induction at 0.5 µM (Renilla [1]; [4]) was 1. For the same molecule, the fold induction at 2 µM (Renilla [1]; [4]) was 1.3, the fold induction at 10 µM (Renilla [1]; [4]) was 1.2 and the fold induction at 40 µM (Renilla [1]; [4]) was 1.7. It also gave a fold induction at 0.5 µM (Renilla [1]; [5]) of 1, a fold induction at 2 µM (Renilla [1]; [5]) of 1.1 and a fold induction at 10 µM (Renilla [1]; [5]) of 1.1. It also gave a fold induction at 40 µM (Renilla [1]; [5]) of 1.9, a fold induction at 0.5 µM (HEK293 pGL4; [6]) of 1 and a fold induction at 2 µM (HEK293 pGL4; [7]) of 1.6. For the same molecule, the fold induction at 10 µM (HEK293 pGL4; [8]) was 1.4, the fold induction at 40 µM (HEK293 pGL4; [9]) was 1.3 and the fold induction at 0.5 µM (HEK293 pGL4; [10]) was 1. It also gave a fold induction at 2 µM (HEK293 pGL4; [11]) of 1, a fold induction at 10 µM (HEK293 pGL4; [12]) of 0.8 and a fold induction at 40 µM (HEK293 pGL4; [13]) of 1.1. It also gave a fold induction at 0.5 µM (HEK293 pGL4; [14]) of 0.9, a fold induction at 2 µM (HEK293 pGL4; [15]) of 1.1 and a fold induction at 10 µM (HEK293 pGL4; [16]) of 1.7. For the same molecule, the fold induction at 40 µM (HEK293 pGL4; [17]) was 1.6, the “Firefly LBD, cmpd/DMSO (mean)” value (NR2F6 LBD; 0.5 uM) was 1.4 and the “Firefly LBD, cmpd/DMSO (mean)” value (NR2F6 LBD; 2 uM) was 1.7. The “Firefly LBD, cmpd/DMSO (mean)” value (NR2F6 LBD; 10 uM) was 1.6, the “Firefly LBD, cmpd/DMSO (mean)” value (NR2F6 LBD; 40 uM) was 2.8 and the “Renilla LBD, cmpd/DMSO (mean)” value (Renilla [2]; 0.5 uM) was 0.9. The “Renilla LBD, cmpd/DMSO (mean)” value (Renilla [2]; 2 uM) was 0.9, the “Renilla LBD, cmpd/DMSO (mean)” value (Renilla [2]; 10 uM) was 0.8 and the “Renilla LBD, cmpd/DMSO (mean)” value (Renilla [2]; 40 uM) was 0.9.

In the case of `O=S1(=O)C[C@H](NCC2CCCO2)[C@@H](S(=O)(=O)c2cccs2)C1` (stereo partly drawn) [Compound D134], the “Firefly F4, cmpd/DMSO (mean)” value (NR2F6; 0.5 uM) was 1.5, the “Firefly F4, cmpd/DMSO (mean)” value (NR2F6; 2 uM) was 2.3 and the “Firefly F4, cmpd/DMSO (mean)” value (NR2F6; 10 uM) was 2.1. The “Firefly F4, cmpd/DMSO (mean)” value (NR2F6; 40 uM) was 2.8, the “F4, Firefly/Renilla for S/B(F4) > 3” value (NR2F6; 1% FBS, 40 uM) was 2.6 and the “Firefly, F4/pGL4 for S/B(F4) > 3” value (NR2F6; 1% FBS, 40 uM) was 4.0. The “F4, Firefly/Renilla for S/B(F4) > 3” value (NR2F6; 10% FBS, 40 uM) was 2.3, the “Firefly, F4/pGL4 for S/B(F4) > 3” value (NR2F6; 10% FBS, 40 uM) was 2.3 and the “Firefly, F4, 1% FBS, cmpd/DMSO (mean)” value (NR2F6; 1% FBS, 0.5 uM) was 1.0. For the same molecule, the “Firefly, F4, 1% FBS, cmpd/DMSO (mean)” value (NR2F6; 1% FBS, 2 uM) was 1.2, the “Firefly, F4, 1% FBS, cmpd/DMSO (mean)” value (NR2F6; 1% FBS, 10 uM) was 2.0 and the “Firefly, F4, 1% FBS, cmpd/DMSO (mean)” value (NR2F6; 1% FBS, 40 uM) was 5.4. The “Firefly, F4, 10% FBS, cmpd/DMSO (mean)” value (NR2F6; 10% FBS, 0.5 uM) was 1.1, the “Firefly, F4, 10% FBS, cmpd/DMSO (mean)” value (NR2F6; 10% FBS, 2 uM) was 1.0 and the “Firefly, F4, 10% FBS, cmpd/DMSO (mean)” value (NR2F6; 10% FBS, 10 uM) was 2.1. For the same molecule, the “Firefly, F4, 10% FBS, cmpd/DMSO (mean)” value (NR2F6; 10% FBS, 40 uM) was 4.6, the fold induction at 0.5 µM (Renilla [1]; [3]) was 1.1 and the fold induction at 2 µM (Renilla [1]; [3]) was 1.2. The fold induction at 10 µM (Renilla [1]; [3]) was 1.3, the fold induction at 40 µM (Renilla [1]; [3]) was 1.5 and the fold induction at 0.5 µM (Renilla [1]; [4]) was 1. The fold induction at 2 µM (Renilla [1]; [4]) was 1.2, the fold induction at 10 µM (Renilla [1]; [4]) was 1.4 and the fold induction at 40 µM (Renilla [1]; [4]) was 2.1. It also gave a fold induction at 0.5 µM (Renilla [1]; [5]) of 1, a fold induction at 2 µM (Renilla [1]; [5]) of 1 and a fold induction at 10 µM (Renilla [1]; [5]) of 1.3. For the same molecule, the fold induction at 40 µM (Renilla [1]; [5]) was 2, the fold induction at 0.5 µM (HEK293 pGL4; [6]) was 1 and the fold induction at 2 µM (HEK293 pGL4; [7]) was 1.3. It also gave a fold induction at 10 µM (HEK293 pGL4; [8]) of 1.6, a fold induction at 40 µM (HEK293 pGL4; [9]) of 1.7 and a fold induction at 0.5 µM (HEK293 pGL4; [10]) of 1. For the same molecule, the fold induction at 2 µM (HEK293 pGL4; [11]) was 1.3, the fold induction at 10 µM (HEK293 pGL4; [12]) was 1.3 and the fold induction at 40 µM (HEK293 pGL4; [13]) was 1.4. It also gave a fold induction at 0.5 µM (HEK293 pGL4; [14]) of 1.2, a fold induction at 2 µM (HEK293 pGL4; [15]) of 1.3 and a fold induction at 10 µM (HEK293 pGL4; [16]) of 1.7. For the same molecule, the fold induction at 40 µM (HEK293 pGL4; [17]) was 2, the “Firefly LBD, cmpd/DMSO (mean)” value (NR2F6 LBD; 0.5 uM) was 1.5 and the “Firefly LBD, cmpd/DMSO (mean)” value (NR2F6 LBD; 2 uM) was 1.5. For the same molecule, the “Firefly LBD, cmpd/DMSO (mean)” value (NR2F6 LBD; 10 uM) was 1.9, the “Firefly LBD, cmpd/DMSO (mean)” value (NR2F6 LBD; 40 uM) was 1.8 and the “Renilla LBD, cmpd/DMSO (mean)” value (Renilla [2]; 0.5 uM) was 0.9. The “Renilla LBD, cmpd/DMSO (mean)” value (Renilla [2]; 2 uM) was 0.9, the “Renilla LBD, cmpd/DMSO (mean)” value (Renilla [2]; 10 uM) was 1.0 and the “Renilla LBD, cmpd/DMSO (mean)” value (Renilla [2]; 40 uM) was 0.7.

From patent US11377442B2, “Small molecule agonists and antagonists of NR2F6 activity” (ZANDER THERAPEUTICS, INC., priority 2016, dated 2022)
